# Laboratory results published in patent publication US20140255517A1, “MANAGING POST-TRAUMATIC STRESS DISORDER” (EMORY UNIVERSITY, priority 2013, published 2014).
# “Also recorded” adds a separate entry of the source.
# How the values were obtained:
# Type in all cases: in vivo, mice
# c-Fos = c-Fos activation in the paraventricular nucleus after restraint stress; settings: chronic losartan vs vehicle, t(10)=2.3, P<0.05
# Excerpt: (§1) As an index of central HPA neuronal activation, c-Fos activation was then examined in the paraventricular nucleus (PVN).
# corticosterone = experiment: Plasma corticosterone after 30 minutes of restraint stress; settings: losartan for 2 weeks vs vehicle; 30 minutes restraint stress
# Procedure: (§2) The hypothalamic pituitary axis (HPA) stress axis could influence the level of learned fear. In order to examine the chronic effects of losartan on the HPA, stress response was examined as well as plasma renin, a measure of endogenous angiotensin II activity. Animals were exposed to 30 minutes of restraint stress and plasma levels of corticosterone and renin measured.
# [1] = system: animal model of PTSD-like symptoms; experiment: Cued Pavlovian fear conditioning and extinction after chronic losartan infusion by osmotic mini-pump
# Procedure: Extinction training/fear expression was tested and total average freezing within the session (B) and represented in blocks of 5 CS tones (C) 24 hr following fear acquisition.
# The chronic effects of AT1 R antagonism on the extinction of fear to were examined. Two-week osmotic mini-pumps were implanted and losartan (10 mg/kg/day) was subcutaneously infused. […] On day 10, animals underwent Pavlovian fear conditioning as described above.
# plasma renin = experiment: Plasma renin activity after 30 minutes of restraint stress; settings: losartan for 2 weeks vs vehicle; 30 minutes restraint stress
# Procedure: as §2, §1
# [2] = Baseline blood pressure measured by radiotelemetry
# Procedure: Distance traveled during open-field testing (B) and percent time in open arms of elevated plus maze test of vehicle (C) (n=6-8/group).
# In order to determine whether inhibition of the renin-angiotensin system is involved in modulating fear directly or indirectly, both acute and chronic inhibition of the angiotensin type 1 receptor (AT1R) were examined using the AT1R antagonist losartan (1 mg/kg and 10 mg/kg). […] A dose of 10 mg/kg is commonly used in rodents, however the effects on baseline blood pressure are mixed. When given acutely or chronically, some studies show reductions in baseline blood pressure while others show no effect.
# [3] = system: animal model of PTSD-like symptoms; experiment: Cued Pavlovian fear conditioning, extinction training and extinction retention after acute losartan
# Procedure: 24 hr following fear acquisition, losartan (1 mg/kg or 10 mg/kg i.p) was given prior to extinction training (B, E; n=20-25/group). 24 hr following extinction training, and in the absence of drug, mice were tested for extinction retention of learned fear, expressed as total average freezing and in blocks of 5 CS tones (C,D,F,G). To further understand the mechanism by which angiotensin II blockers reduce PTSD symptoms, the effects of the selective AT1R antagonist losartan were examined in an animal model of PTSD-like symptoms. Animals were cue-fear trained using Pavlovian fear conditioning consisting of five pairings of a conditioned stimulus (CS) tone (12 kHz) co-terminating with a shock or unconditioned stimulus (US). […] Twenty-four hours later, the effects of losartan were examined on fear expression (also considered the extinction training session) to the presentation of 15 trials of CS cues in a different context. Groups were given either losartan (1 mg/kg or 10 mg/kg i.p.) or saline 40 minutes prior to fear expression/extinction training. […] Therefore in a separate group of animals, a higher dose of losartan (10 mg/kg i.p.) was examined. […] Twenty-four hours later in the absence of drug, long-term fear memory was assessed (extinction retention).
# AT1R mRNA = experiment: Amygdala AT1R mRNA expression after extinction training (RT-qPCR); settings: chronic losartan vs vehicle, following extinction training; t(11)=2.8, P<0.05
# [4] = Anxiety-like behavior in elevated plus maze and open field tests
# Procedure: Distance traveled during open-field testing (B) and percent time in open arms of elevated plus maze test of vehicle (C) (n=6-8/group). To determine whether losartan affects baseline levels of generalized anxiety, animals were tested in the elevated plus and open field mazes.
# [5] = chronic losartan 10 mg/kg/day vs vehicle
compound,measurement,setting,value
CCCCc1nc(Cl)c(CO)n1Cc1ccc(-c2ccccc2-c2nn[nH]n2)cc1 [losartan],c-Fos activation in the paraventricular nucleus (PVN),c-Fos,reduced c-Fos activation in the PVN; also recorded: less c-Fos activation in the paraventricular nucleus
same,plasma corticosterone levels following restraint stress,corticosterone,unaltered by losartan
same,acquisition of fear (percent freezing),"[1]; losartan 10 mg/kg/day subcutaneous infusion, conditioning on day 10, vs vehicle",no difference in the acquisition of fear; also recorded: acquired fear similarly to control groups
same,fear expression: total average freezing or blocks of 5 CS trials,"[1]; losartan 10 mg/kg/day subcutaneous infusion, 24 hrs after fear acquisition",no significant difference in total average freezing
same,extinction retention of fear memory over the total average freezing period,"[1]; losartan 10 mg/kg/day subcutaneous infusion, t(35)=2.4, P<0.05",enhanced extinction retention of fear memory
same,"freezing to CS presentation during extinction retention testing (repeated-measures ANOVA, main effect of treatment)","[1]; losartan 10 mg/kg/day, F1,108=8.8, P<0.005",significantly less freezing to CS presentation
same,freezing in blocks of five CS tone presentations during extinction retention (Bonferroni post hoc),"[1]; losartan 10 mg/kg/day, P<0.05",significant reductions in freezing during the second block
same,plasma renin activity following restraint stress,plasma renin,unchanged by losartan
same,baseline blood pressure,[2]; acute losartan 10 mg/kg i.p. vs saline,no effect on baseline blood pressure
same,baseline blood pressure,[2]; [5],no differences between groups
same,total average freezing during extinction training/fear expression,"[3]; losartan 1 mg/kg i.p. 40 minutes prior to extinction training, vs saline",no difference in total average freezing
same,freezing during extinction retention testing,"[3]; losartan 1 mg/kg i.p., tested 24 hours after extinction training in the absence of drug, vs saline",no freezing differences between groups
same,total average freezing during extinction training/fear expression,"[3]; losartan 10 mg/kg i.p. 40 minutes prior to extinction training, vs saline",no differences between groups in total average freezing
same,total overall freezing during extinction retention,"[3]; losartan 10 mg/kg i.p., 24 hours later in the absence of drug, t(48)=2.9, P<0.01",total overall freezing was significantly reduced
same,"freezing to CS presentation during extinction retention testing (repeated-measures 2 way ANOVA, main effect of treatment)","[3]; losartan 10 mg/kg i.p., F1,144=14.6, P<0.001",significantly less freezing to CS presentation
same,freezing in blocks of five CS tone presentations during extinction retention (Bonferroni post hoc),"[3]; losartan 10 mg/kg i.p., P<0.05",significant reductions in freezing during the first and third blocks
same,amygdala AT1R mRNA expression,AT1R mRNA,significantly reduced amygdala AT1R mRNA expression; also recorded: decreased amygdala AT1 receptor mRNA expression
same,"anxiety-like behavior (distance traveled, time spent in open arms)","[4]; acute losartan 10 mg/kg i.p. 40 minutes prior to test, vs saline",No differences in anxiety-like behavior
same,"generalized anxiety (percent time in center and distance traveled, open field test)",[4]; [5],no differences between groups
